Reference: US9532569B2 (INSTITUT NATIONAL DE LA RECHERCHE AGRONOMIQUE, priority 2012, dated 2017)

Experiments:
[1] = Stability in aqueous medium (UPLC, % nondegraded compound); format: physicochemical; conditions: second experiment, longer incubation times; 50 μg/ml in methanol/water: 1/4, pH 6.7, 21° C.; FIG. 2
Experimental: The stability in aqueous medium of the compound (IIa) according to the invention and that of GR24 as comparative compound was evaluated in the following way.
Each compound was diluted in acetone (1 ml), then 50 μl of each solution were diluted with methanol (175 μl) and water (750 μl) so as to obtain a compound concentration of 50 μg/ml.
The aqueous solution thus obtained was incubated at 21° C. in HPLC vials.
Indanol (25 μl of a solution at 1 mg/ml in acetone) was added to each solution in order to serve as an internal standard.
The degradation of each compound over time was monitored by analysis of samples taken from the solution at various time intervals, by Ultra Performance Liquid Chromatograpy (UPLC) by means of an Acquity UPLC HSS C18 column (1.8 μm, 2.1×50 mm), eluted first of all with a solution of acetonitrile at 5% in water containing 0.1% of formic acid, for 0.5 min, then with a gradient of 5% to 100% of acetonitrile in water containing 0.1% of formic acid, for 6.5 min, and with 100% of acetonitrile containing 0.1% of formic acid for 3 min. The column was maintained at a temperature of 40° C., with a flow of 0.6 ml/min.
The compounds eluted from the column were detected with a photodiode array detector.
The relative amount of nondegraded compound in the solution was determined by comparison with the internal standard.
In a second experiment, the stability in aqueous medium of the compounds (IIa) and (IIIb) according to the invention, and that of GR24 as comparative compound, was evaluated according to the protocol described above.

pea rms4 mutant = format: in vivo, Pisum sativum L.
Experimental: The protocol used is in accordance with that described in example 4 above. Compound concentrations of 100 nM and 3 μM were tested. A negative control consisting of the solvent alone (<<CTL 0>>) was also tested.
The number of dead buds following the treatment with 3 μM of compound was also determined after 8 days of treatment (on groups of 48 plants).

Phelipanche ramosa pv C = experiment: Germinative activity on parasitic plants; format: in vivo; conditions: counted after 4 days
Experimental: (§1) In this example, the germinative activity of the compounds in accordance with the invention (IIa) and (IIIb) and of the comparative compound GR24 was evaluated on the parasitic plants: Orobanche cumana, Orobanche minor, Striga hermonthica, Phelipanche ramosa (pv T and pv C).
(§2) The test protocol used was the following.
(§3) Two populations of Phelipanche ramosa were used in this study, pathovar (pv) C and T, described in the publication by Benharrat et al. (2005). Seeds of Phelipanche ramosa pathovar C were collected at Saint Martin de Fraigneau, France, on broomrapes parasitizing winter oilseed rape (Brassica napus L.) in 2005 and seeds of Phelipanche ramosa pathovar T were collected in Sarthe, France, on broomrapes developing on hemp (Cannabis sativa L.) in 2007.
(§4) The seeds are stored dry in the dark at 25° C.
(§5) The compounds to be studied were resuspended in acetone at 10 mmol·l^−1, then diluted with water to 1 mmol·l^−1 (water/acetone; v/v; 99/1). Dilutions of 1×10^−3 mol·l^−1 to 1×10^−15 mol·l^−1 were then prepared in a water/acetone mixture (v/v; 99/1). Seeds of parasitic plants were surface-sterilized according to the protocol described in the publication by Vieira Dos Santos et al. (2003), then resuspended in sterile water (10 g·l^−1) and distributed on a 96-well plate (in a proportion of 50 μl, i.e. approximately 100 seeds per well). After preconditioning (7 days, 21° C., in the dark, plate hermetically sealed, except for the seeds of S. hermonthica, which were preconditioned at 30° C.), the compounds to be studied were added and the volumes adjusted to 100 μl with water (water/acetone; v/v; 999/1).
(§6) In a plate, a range of concentrations from 10^−13 mol·l^−1 to 10^−6 mol·l^−1 was applied for GR24 and (IIa) and from 10^−12 to 10^−5 mol·l^−1 for (IIIb). Controls were carried out with a water/acetone mixture (v/v; 999/1) and without seeds. The plates were incubated so as to allow germination (21° C., in the dark or 30° C. for Striga hermonthica.). After 4 days, the seeds which had germinated were counted under a stereomicroscope (SZX10, Olympus). The seeds were considered to have germinated when the radicle was sticking out of the seed tegument. Each germination test was repeated at least 3 times. For each compound tested, dose-response curves (g=f(c), where g is the germination percentage and c the concentration (mol·l^−1)), and the EC50 (median effective concentration) were modeled on the basis of a 4-parameter logistic curve calculated with SigmaPlot® 10.0.
(§7) The percentages of maximum germination induced by the compounds tested for each parasitic plant were determined.

Phelipanche ramosa pv T = experiment: Germinative activity on parasitic plants; format: in vivo; conditions: counted after 4 days
Experimental: as §1, §2, §3, §4, §5, §6, §7

Striga hermonthica = experiment: Germinative activity on parasitic plants; format: in vivo; conditions: counted after 4 days, 30° C.
Experimental: as §1, §2
Seeds of Striga hermonthica (Del.) Benth were collected at Gadarif, Eastern Sudan, in 1999.
as §4, §5
as §6, with “The seeds were considered to have germinated when the radicle was sticking out of the seed tegument. Each germination test was repeated at least 3 times.” left out
as §7

Orobanche cumana = experiment: Germinative activity on parasitic plants; format: in vivo; conditions: counted after 4 days
Experimental: as §1, §2
(§8) Seeds of Orobanche cumana Wallr. were collected from broomrapes parasitizing sunflower (Helianthus annuus L.), at Longeville-sur-mer, France, in 2009; seeds of clover broomrape (Orobanche minor Sm.) from a parasite of red clover (Trifolium pratense L.) were obtained from Professor K. Yoneyama (Utsunomiya University, Japan).
as §4, §5, §6, §7

Orobanche minor = experiment: Germinative activity on parasitic plants; format: in vivo; conditions: counted after 4 days
Experimental: as §1, §2, §8, §4, §5, §6, §7

Structure (SMILES): COC(=O)/C=C/C(C)=C/OC1OC(=O)C(C)=C1C (centres unmarked) [Compound (IIIb)]
- chemical stability in aqueous solution (% of nondegraded compound as a function of incubation time) [1]: even better than that of the compound (IIa)
- length of bud/branch at node 3 (toxicity) (pea rms4 mutant; 100 nM and 3 μM, 8 days after treatment at node 3, FIG. 15): absence of effects of the compounds in accordance with the invention (IIa) and (IIIb) compared with a negative control, and between the two treatment doses
- number of dead buds after treatment (pea rms4 mutant; 3 μM, 8 days of treatment, groups of 48 plants, FIG. 16): did not cause the death of any bud
- Percentage of maximum germination induced (Phelipanche ramosa pv C): no (no significant germination compared to the negative control (<2%))
- Percentage of maximum germination induced (Phelipanche ramosa pv T): 88 ± 6%
- Percentage of maximum germination induced (Striga hermonthica): no (no significant germination compared to the negative control (<2%))
- Percentage of maximum germination induced (Orobanche cumana): no (no significant germination compared to the negative control (<2%))
- Percentage of maximum germination induced (Orobanche minor): 60 ± 6%
